Reference: US8785614B2, “Aberrantly methylated genes in pancreatic cancer” (The Johns Hopkins University, priority 2003, dated 2014)
Like-named read-outs stand apart in the source and are kept apart here.

Columns and labels:
[1] = system: four pancreatic cancer cell lines (AsPC1, Hs766T, MiaPaCa2, Panc1); format: cell-based, human
Text: These include a large panel of novel targets for silencing by histone deacetylation including several known tumor suppressor genes or cell cycle-regulatory genes (ING1, p57KIP2, CHES1, CHFR, GADD45B, and others).

[2] = system: Hs766T pancreatic cancer cell line
Experimental: Mock-treated cells were cultured with the equivalent volume of PBS alone.
Total RNA was isolated from cultured cells using TRIZOL reagent (invitrogen, Carlsbad, Calif.) and purified using RNeasy Mini Kit (Qiagen, Valencia, Calif.). First- and second-stranded cDNA was synthesized from 10 μg of total RNA using 17-dT) primer (Genset Corp., La Jolla, Calif.) and Superscript Choice system (Invitrogen). Labeled cRNA was synthesized from the purified cDNA by in vitro transcription reaction using the BioArray High Yield RNA Transcript Labeling Kit (Enzo Diagnostics, Inc., Farmingdale, N.Y.) at 37° C. for 6 h. The cRNA was fragmented at 94° C. for 35 min. in a fragmentation buffer [40 mM Tris-acetate @ pH 8.1, 100 mM potassium acestate, and 30 mM magnesium acetate]. The fragmented cRNA was then hybridized to the Human Genome U133A chips (Affymetrix, Santa Clara, Calif.) with 18462 unique gene/EST transcripts at 45° C. for 16 h. The washing and staining procedure was performed in the Affymetrix Fluidics Station according to the manufacturer's instructions. The probes were then scanned using a laser scanner, and signal intensity for each transcript (background-subtracted and adjusted for noise) was calculated using Microarray Suite Software 5.0 (Affymetrix).
Fold change analysis of signal intensities obtained from oligonucleotide microarrays between the two treatment groups was performed using Data Mining software (Afrymetrix).
The global changes in gene expression proxies induced by 5Aza-dC in four pancreatic cancer cell lines (AsPCl, Hs766T, MiaPaCa2, and Panel) were determined using the Afrymetrix U133 oligonucleotide microarrays with 18462 probes sets (transcripts) covering over 13000 full-length sequences of known genes.

Structure (SMILES): CC(/C=C/C(=O)NO)=C\[C@@H](C)C(=O)c1ccc(N(C)C)cc1 [TSA, trichostatin A]
- changes in phenotypes during the treatment period [1]: did not result in apparent changes in their phenotypes
- Induced by TSA alone? ([1]; ANGPT2): No
- Induced by TSA alone? ([1]; BARD1): No
- Induced by TSA alone? ([1]; BIK): Yes
- Induced by TSA alone? ([1]; BNIP3): Yes
- Induced by TSA alone? ([1]; BNIP3 (Table 3)): Yes
- Induced by TSA alone? ([1]; BST2): No
- Induced by TSA alone? ([1]; BST2 (Table 3)): No
- Induced by TSA alone? ([1]; CACNA1G): Yes
- Induced by TSA alone? ([1]; CASP5): No
- Induced by TSA alone? ([1]; CCNA1): No
- Induced by TSA alone? ([1]; CCNE2): No
- Induced by TSA alone? ([1]; CDC25A): No
- Induced by TSA alone? ([1]; CDH3): No
- Induced by TSA alone? ([1]; CDKN1A (p21)): No
- Induced by TSA alone? ([1]; CDKN1C): Yes
- Induced by TSA alone? ([1]; CDKN2A (p16)): No
- Induced by TSA alone? ([1]; CLDN5): No
- Induced by TSA alone? ([1]; CLDN7): No
- Induced by TSA alone? ([1]; CRIP 1): Yes
- Induced by TSA alone? ([1]; CRLF1): Yes
- Induced by TSA alone? ([1]; CSF1): Yes
- Induced by TSA alone? ([1]; CSF3): No
- Induced by TSA alone? ([1]; Cdc42 effector protein 2): No
- Induced by TSA alone? ([1]; DAPK2): No
- Induced by TSA alone? ([1]; DAZL): Yes
- Induced by TSA alone? ([1]; DEAD box RNA helicase (VASA)): No
- Induced by TSA alone? ([1]; DR3): No
- Induced by TSA alone? ([1]; FOXE1): No
- Induced by TSA alone? ([1]; GAGE1): Yes
- Induced by TSA alone? ([1]; GAGE2): Yes
- Induced by TSA alone? ([1]; GAGE3): Yes
- Induced by TSA alone? ([1]; GAGE4): Yes
- Induced by TSA alone? ([1]; GAGE6): Yes
- Induced by TSA alone? ([1]; GAGE7): Yes
- Induced by TSA alone? ([1]; GAGE7B): Yes
- Induced by TSA alone? ([1]; GAS1): No
- Induced by TSA alone? ([1]; HOXA1): No
- Induced by TSA alone? ([1]; HSPA1A): Yes
- Induced by TSA alone? ([1]; IGF2): No
- Induced by TSA alone? ([1]; IL1R1): No
- Induced by TSA alone? ([1]; ISG20): No
- Induced by TSA alone? ([1]; ITM3): Yes
- Induced by TSA alone? ([1]; JPH3): No
- Induced by TSA alone? ([1]; KLK10): No
- Induced by TSA alone? ([1]; KRT17): No
- Induced by TSA alone? ([1]; LDOC1): No
- Induced by TSA alone? ([1]; LHX1): No
- Induced by TSA alone? ([1]; LHX2): No
- Induced by TSA alone? ([1]; LIPC): No
- Induced by TSA alone? ([1]; MAGE1): Yes
- Induced by TSA alone? ([1]; MAGEC1): Yes
- Induced by TSA alone? ([1]; MATN1): Yes
- Induced by TSA alone? ([1]; MLH1): Yes
- Induced by TSA alone? ([1]; NEFH): Yes
- Induced by TSA alone? ([1]; NK4): Yes
- Induced by TSA alone? ([1]; NPTX2): Yes
- Induced by TSA alone? ([1]; PAX6): No
- Induced by TSA alone? ([1]; PAX6 (Table 3)): No
- Induced by TSA alone? ([1]; PDYN): No
- Induced by TSA alone? ([1]; PIG11 (Table 3)): No
- Induced by TSA alone? ([1]; PLAT): No
- Induced by TSA alone? ([1]; PLEK2): No
- Induced by TSA alone? ([1]; PRG1): Yes
- Induced by TSA alone? ([1]; S100A2): No
- Induced by TSA alone? ([1]; S100P): No
- Induced by TSA alone? ([1]; SALL1): No
- Induced by TSA alone? ([1]; SARP2): No
- Induced by TSA alone? ([1]; SARP2 (Table 3)): No
- Induced by TSA alone? ([1]; SGCE): Yes
- Induced by TSA alone? ([1]; SMARCA1): No
- Induced by TSA alone? ([1]; SPANXC): Yes
- Induced by TSA alone? ([1]; ST14): Yes
- Induced by TSA alone? ([1]; STAT3): Yes
- Induced by TSA alone? ([1]; TERT): No
- Induced by TSA alone? ([1]; TIMP3): No
- Induced by TSA alone? ([1]; TJP2): No
- Induced by TSA alone? ([1]; TNF): No
- number of the 11 genes with aberrantly methylated CpG islands whose expression was induced ([1]; TSA alone): 4 genes
- Induced by TSA alone? ([1]; UCHL1): Yes
- Induced by TSA alone? ([1]; UCHL1 (Table 3)): Yes
- Induced by TSA alone? ([1]; WISP2): No
- Induced by TSA alone? ([1]; WIT-1): No
- Induced by TSA alone? ([1]; WNT7A): Yes
- Induced by TSA alone? ([1]; XAGE-1): Yes
- Induced by TSA alone? ([1]; XAGE-1 (Table 3)): Yes
- Induced by TSA alone? ([1]; activity-regulated cytoskeleton-associated protein (APC)): Yes
- Induced by TSA alone? ([1]; aik3): Yes
- Induced by TSA alone? ([1]; basic fibroblast growth factor (FGF)): Yes
- Induced by TSA alone? ([1]; cytovillin 2 (VIL2, ezrin)): No
- Induced by TSA alone? ([1]; granulocytemacrophage colony-stimulating factor (M11734)): Yes
- Induced by TSA alone? ([1]; interferon, alpha-inducible protein (NM_022873)): Yes
- Induced by TSA alone? ([1]; junction adhesion molecule (AF154005)): Yes
- Induced by TSA alone? ([1]; matrix metalloproteinase 8 (MMP3)): No
- Induced by TSA alone? ([1]; nucleotide-binding site protein 1 (AF298547)): Yes
- Induced by TSA alone? ([1]; p53-induced protein (PIGII)): No
- Induced by TSA alone? ([1]; reprimo): No
- Induced by TSA alone? ([1]; stratifin (14-3-3 sigma)): Yes
- Induced by TSA alone? ([1]; stromal antigen 3 (STAG5)): Yes
- Induced by TSA alone? ([1]; synovial sarcoma, X breakpoint 2 (AF257500)): Yes
- Induced by TSA alone? ([1]; testin): Yes
- Induced by TSA alone? ([1]; transketolase-like protein (X91817)): Yes

Structure (SMILES): Nc1ncn([C@H]2C[C@H](O)[C@@H](CO)O2)c(=O)n1 [5Aza-dC, 5 aza 2′ deoxycytidine]
- Fold-change after 5Aza-dC treatment ([2]; ANGPT2, Hs766T): −0.44 fold
- Fold-change after 5Aza-dC treatment ([2]; BARD1, Hs766T): 5.21 fold
- Fold-change after 5Aza-dC treatment ([2]; BNIP3, Hs766T): −1.75 fold
- Fold-change after 5Aza-dC treatment ([2]; BST2, Hs766T): 1.36 fold
- Fold-change after 5Aza-dC treatment ([2]; CACNA1G, Hs766T): 0.5 fold
- Fold-change after 5Aza-dC treatment ([2]; CCNE2, Hs766T): 5.28 fold
- Fold-change after 5Aza-dC treatment ([2]; CDH3, Hs766T): 0.89 fold
- Fold-change after 5Aza-dC treatment ([2]; CDKN1A (p21), Hs766T): 1.04 fold
- Fold-change after 5Aza-dC treatment ([2]; CDKN1C, Hs766T): 5.42 fold
- Fold-change after 5Aza-dC treatment ([2]; CLDN5, Hs766T): 1.21 fold
- Fold-change after 5Aza-dC treatment ([2]; CSF1, Hs766T): 5.75 fold
- Fold-change after 5Aza-dC treatment ([2]; DR3, Hs766T): −1.46 fold
- Fold-change after 5Aza-dC treatment ([2]; FOXE1, Hs766T): 5.63 fold
- Fold-change after 5Aza-dC treatment ([2]; GAGE1, Hs766T): 0.48 fold
- Fold-change after 5Aza-dC treatment ([2]; GAGE3, Hs766T): −2.57 fold
- Fold-change after 5Aza-dC treatment ([2]; GAGE4, Hs766T): −1.1 fold
- Fold-change after 5Aza-dC treatment ([2]; GAGE6, Hs766T): 1.09 fold
- Fold-change after 5Aza-dC treatment ([2]; GAGE7, Hs766T): −1.12 fold
- Fold-change after 5Aza-dC treatment ([2]; HOXA1, Hs766T): −1.61 fold
- transcripts with >5-fold increase, share of the 18462 transcripts analyzed ([2]; Hs766T): 0.9%
- transcripts with substantial increase (>5-fold) in signal intensities ([2]; Hs766T, vs mock-treated): 167 transcripts
- Fold-change after 5Aza-dC treatment ([2]; IGF2, Hs766T): −0.41 fold
- Fold-change after 5Aza-dC treatment ([2]; IL1R1, Hs766T): −2.59 fold
- Fold-change after 5Aza-dC treatment ([2]; ISG20, Hs766T): 1.02 fold
- Fold-change after 5Aza-dC treatment ([2]; JPH3, Hs766T): 5.27 fold
- Fold-change after 5Aza-dC treatment ([2]; KLK10, Hs766T): 1.16 fold
- Fold-change after 5Aza-dC treatment ([2]; LDOC1, Hs766T): −1.86 fold
- Fold-change after 5Aza-dC treatment ([2]; LHX1, Hs766T): 1.92 fold
- Fold-change after 5Aza-dC treatment ([2]; MAGE1, Hs766T): 4.45 fold
- Fold-change after 5Aza-dC treatment ([2]; MATN1, Hs766T): 6.83 fold
- Fold-change after 5Aza-dC treatment ([2]; NEFH, Hs766T): −1.24 fold
- Fold-change after 5Aza-dC treatment ([2]; NPTX2, Hs766T): −2.6 fold
- Fold-change after 5Aza-dC treatment ([2]; PAX6, Hs766T): 1.36 fold
- Fold-change after 5Aza-dC treatment ([2]; PDYN, Hs766T): 6.38 fold
- Fold-change after 5Aza-dC treatment ([2]; PLAT, Hs766T): −1.73 fold
- Fold-change after 5Aza-dC treatment ([2]; PLEK2, Hs766T): 1.12 fold
- Fold-change after 5Aza-dC treatment ([2]; SARP2, Hs766T): 1.35 fold
- Fold-change after 5Aza-dC treatment ([2]; SMARCA1, Hs766T): −0.79 fold
- Fold-change after 5Aza-dC treatment ([2]; ST14, Hs766T): −4.72 fold
- Fold-change after 5Aza-dC treatment ([2]; TIMP3, Hs766T): −3.67 fold
- Fold-change after 5Aza-dC treatment ([2]; TJP2, Hs766T): −1.56 fold
- Fold-change after 5Aza-dC treatment ([2]; TNF, Hs766T): −4.9 fold
- Fold-change after 5Aza-dC treatment ([2]; UCHL1, Hs766T): 1.45 fold
- Fold-change after 5Aza-dC treatment ([2]; WNT7A, Hs766T): 9.03 fold
- Fold-change after 5Aza-dC treatment ([2]; XAGE-1, Hs766T): −0.5 fold
- Fold-change after 5Aza-dC treatment ([2]; granulocytemacrophage colony-stimulating factor (M11734), Hs766T): 5.53 fold
- Fold-change after 5Aza-dC treatment ([2]; interferon, alpha-inducible protein (NM_022873), Hs766T): −4.46 fold
- Fold-change after 5Aza-dC treatment ([2]; p53-induced protein (PIGII), Hs766T): 1.04 fold
- Fold-change after 5Aza-dC treatment ([2]; reprimo, Hs766T): 6.65 fold
- Fold-change after 5Aza-dC treatment ([2]; stratifin (14-3-3 sigma), Hs766T): −1.64 fold
- Fold-change after 5Aza-dC treatment ([2]; stromal antigen 3 (STAG5), Hs766T): 1.01 fold
- Fold-change after 5Aza-dC treatment ([2]; testin, Hs766T): 1.6 fold
